Source: ChEMBL document CHEMBL1201862, “PubChem BioAssay data set” (2004)
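Exposure lasted 48 hours, with cells grown in 96-well plates and compounds tested at five concentrations. GI50 is the concentration that inhibits growth by half.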 Activity calls are given as the source filed them. Rule as the data show it: active = GI50 up to about 1.1 µM and inactive = higher.

Tests used:
Experiment in all cases: NCI tumour cell line growth inhibition, 48 h
SW-620 = test system: SW-620
OVCAR-5 = test system: OVCAR-5
786-0 = test system: 786-0
HOP-92 = test system: HOP-92
SK-MEL-2 = test system: SK-MEL-2
HL-60 = test system: HL-60
TK-10 = test system: TK-10
SNB-19 = test system: SNB-19
MDA-N = test system: MDA-N
SF-539 = test system: SF-539
NCI-H226 = test system: NCI-H226
LOX IMVI = test system: LOX IMVI
SNB-75 = test system: SNB-75
OVCAR-4 = test system: OVCAR-4
ACHN = test system: ACHN
BT-549 = test system: BT-549
K562 = test system: K562
MOLT-4 = test system: MOLT-4
DU-145 = test system: DU-145
RPMI-8226 = test system: RPMI-8226
MDA-MB-435 = test system: MDA-MB-435
UO-31 = test system: UO-31
NCI-H460 = test system: NCI-H460
EKVX = test system: EKVX
HCT-116 = test system: HCT-116
CAKI-1 = test system: CAKI-1
CCRF-CEM = test system: CCRF-CEM
COLO 205 = test system: COLO 205
HOP-62 = test system: HOP-62
NCI-H23 = test system: NCI-H23
SR = test system: SR
UACC-257 = test system: UACC-257
A549 = test system: A549
Malme-3M = test system: Malme-3M
NCI-H522 = test system: NCI-H522
SK-MEL-28 = test system: SK-MEL-28
RXF 393 = test system: RXF 393
T47D = test system: T47D
IGROV-1 = test system: IGROV-1
OVCAR-8 = test system: OVCAR-8
MCF7 = test system: MCF7
UACC-62 = test system: UACC-62
PC-3 = test system: PC-3
HT-29 = test system: HT-29
SF-268 = test system: SF-268
Hs-578T = test system: Hs-578T
SK-MEL-5 = test system: SK-MEL-5
HCT-15 = test system: HCT-15
SN12C = test system: SN12C
HCC 2998 = test system: HCC 2998
MDA-MB-231 = test system: MDA-MB-231
U-251 = test system: U-251
KM12 = test system: KM12
OVCAR-3 = test system: OVCAR-3
NCI/ADR-RES = test system: NCI/ADR-RES
SK-OV-3 = test system: SK-OV-3
SF-295 = test system: SF-295
M14 = test system: M14
A498 = test system: A498

CN(C)CCCc1cccc2[nH]c3c(c12)CN(C)CC3
GI50 (SW-620): > 100 µM (inactive) | GI50 (OVCAR-5): > 100 µM (inactive) | GI50 (786-0): 92.3 µM (inactive) | GI50 (HOP-92): > 100 µM (inactive) | GI50 (SK-MEL-2): > 100 µM (inactive) | GI50 (HL-60): 56.9 µM (inactive) | GI50 (TK-10): > 100 µM (inactive) | GI50 (SNB-19): > 100 µM (inactive) | GI50 (MDA-N): > 100 µM (inactive) | GI50 (SF-539): 28.8 µM (inactive) | GI50 (NCI-H226): > 100 µM (inactive) | GI50 (LOX IMVI): 30.1 µM (inactive) | GI50 (SNB-75): 78 µM (inactive) | GI50 (OVCAR-4): > 100 µM (inactive) | GI50 (ACHN): > 100 µM (inactive) | GI50 (BT-549): 81.7 µM (inactive) | GI50 (K562): 76.7 µM (inactive) | GI50 (MOLT-4): 75 µM (inactive) | GI50 (DU-145): > 100 µM (inactive) | GI50 (RPMI-8226): > 100 µM (inactive) | GI50 (MDA-MB-435): > 100 µM (inactive) | GI50 (UO-31): > 100 µM (inactive) | GI50 (NCI-H460): > 100 µM (inactive) | GI50 (EKVX): > 100 µM (inactive) | GI50 (HCT-116): > 100 µM (inactive) | GI50 (CAKI-1): > 100 µM (inactive) | GI50 (CCRF-CEM): 63.2 µM (inactive) | GI50 (COLO 205): 63.4 µM (inactive) | GI50 (HOP-62): 56.5 µM (inactive) | GI50 (NCI-H23): > 100 µM (inactive) | GI50 (SR): 27.4 µM (inactive) | GI50 (UACC-257): 80 µM (inactive) | GI50 (A549): > 100 µM (inactive) | GI50 (Malme-3M): 95.9 µM (inactive) | GI50 (NCI-H522): > 100 µM (inactive) | GI50 (SK-MEL-28): > 100 µM (inactive) | GI50 (RXF 393): 19.7 µM (inactive) | GI50 (T47D): > 100 µM (inactive) | GI50 (IGROV-1): 73.1 µM (inactive) | GI50 (OVCAR-8): > 100 µM (inactive) | GI50 (MCF7): > 100 µM (inactive) | GI50 (UACC-62): > 100 µM (inactive) | GI50 (PC-3): 67.1 µM (inactive) | GI50 (HT-29): 40.1 µM (inactive) | GI50 (SF-268): > 100 µM (inactive) | GI50 (Hs-578T): > 100 µM (inactive) | GI50 (SK-MEL-5): > 100 µM (inactive) | GI50 (HCT-15): 80 µM | GI50 (SN12C): > 100 µM (inactive) | GI50 (HCC 2998): > 100 µM (inactive) | GI50 (MDA-MB-231): 17.8 µM (inactive) | GI50 (U-251): > 100 µM (inactive) | GI50 (KM12): > 100 µM (inactive) | GI50 (OVCAR-3): > 100 µM (inactive) | GI50 (NCI/ADR-RES): > 100 µM (inactive) | GI50 (SK-OV-3): > 100 µM (inactive) | GI50 (SF-295): > 100 µM (inactive) | GI50 (M14): 17.3 µM (inactive)

O/N=C\c1cc(O)c(O)c(/C=N/O)c1
GI50 (SW-620): 39.9 µM (inactive) | GI50 (OVCAR-5): 96.2 µM (inactive) | GI50 (HOP-92): 49.9 µM (inactive) | GI50 (SK-MEL-2): 67.9 µM (inactive) | GI50 (HL-60): 14.1 µM (inactive) | GI50 (TK-10): 63.4 µM (inactive) | GI50 (SNB-19): 89.5 µM (inactive) | GI50 (MDA-N): 47.9 µM (inactive) | GI50 (SF-539): 34.4 µM (inactive) | GI50 (NCI-H226): 32.9 µM (inactive) | GI50 (LOX IMVI): 47.8 µM (inactive) | GI50 (SNB-75): > 100 µM (inactive) | GI50 (OVCAR-4): 52 µM (inactive) | GI50 (ACHN): 24.2 µM (inactive) | GI50 (BT-549): 79.1 µM (inactive) | GI50 (K562): 36 µM (inactive) | GI50 (MOLT-4): 21.4 µM (inactive) | GI50 (DU-145): 31.6 µM (inactive) | GI50 (RPMI-8226): 11.8 µM (inactive) | GI50 (MDA-MB-435): 38.8 µM (inactive) | GI50 (UO-31): 16 µM (inactive) | GI50 (NCI-H460): 27.9 µM (inactive) | GI50 (EKVX): 34.8 µM (inactive) | GI50 (HCT-116): 33.8 µM (inactive) | GI50 (CAKI-1): 28.6 µM (inactive) | GI50 (CCRF-CEM): 7.66 µM (inactive) | GI50 (COLO 205): 34.4 µM (inactive) | GI50 (HOP-62): 29.4 µM (inactive) | GI50 (NCI-H23): 71 µM (inactive) | GI50 (SR): 11 µM (inactive) | GI50 (UACC-257): > 100 µM (inactive) | GI50 (A549): 25.2 µM (inactive) | GI50 (Malme-3M): > 100 µM (inactive) | GI50 (NCI-H522): 8.73 µM (inactive) | GI50 (SK-MEL-28): > 100 µM (inactive) | GI50 (RXF 393): 25.6 µM (inactive) | GI50 (T47D): 36.1 µM (inactive) | GI50 (IGROV-1): 41.4 µM (inactive) | GI50 (OVCAR-8): 29 µM (inactive) | GI50 (MCF7): 35.5 µM (inactive) | GI50 (UACC-62): 38.5 µM (inactive) | GI50 (PC-3): 33.3 µM (inactive) | GI50 (HT-29): 59.3 µM (inactive) | GI50 (SF-268): 15.2 µM (inactive) | GI50 (Hs-578T): 23.9 µM (inactive) | GI50 (SK-MEL-5): 33.2 µM (inactive) | GI50 (HCT-15): 34.9 µM | GI50 (SN12C): 27.2 µM (inactive) | GI50 (A498): 69.3 µM (inactive) | GI50 (MDA-MB-231): 56.5 µM (inactive) | GI50 (U-251): 39 µM (inactive) | GI50 (KM12): 38.4 µM (inactive) | GI50 (OVCAR-3): 20.6 µM (inactive) | GI50 (NCI/ADR-RES): 32 µM (inactive) | GI50 (SK-OV-3): 33.7 µM (inactive) | GI50 (SF-295): 55.1 µM (inactive) | GI50 (M14): 27.5 µM (inactive)
